Ki data for seven molecules are collected here from patent US6410556B1, “Modulators of protein tyrosine phosphateses (PTPases)” (Novo Nordisk A/S, priority 1999, dated 2002).

The experiment has as its target T1, truncated form of PTP1B (first 321 amino acids) (Homo sapiens, UniProt P18031).
T1 construct: a truncated form of PTPI B (corresponding to the first 321 amino acids); made in house; host or cells: E. coli
T1 sequence (P18031 1-321 limits assumed): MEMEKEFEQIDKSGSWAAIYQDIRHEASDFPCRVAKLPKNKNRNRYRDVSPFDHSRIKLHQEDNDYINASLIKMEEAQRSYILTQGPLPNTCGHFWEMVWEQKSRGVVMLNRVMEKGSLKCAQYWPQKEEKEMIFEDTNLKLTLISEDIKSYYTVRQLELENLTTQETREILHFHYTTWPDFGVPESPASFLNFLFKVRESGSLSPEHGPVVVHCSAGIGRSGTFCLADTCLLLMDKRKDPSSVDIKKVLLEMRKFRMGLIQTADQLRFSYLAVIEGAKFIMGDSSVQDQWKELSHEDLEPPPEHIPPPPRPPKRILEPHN
Briefly: Inhibition of PTP1B, p-nitrophenyl phosphate substrate, enzyme kinetic analysis. It is filed as biochemical. The following applies: truncated PTP1B expressed in E. coli; substrate p-nitrophenyl phosphate 0.16 to 10 mM; 50 mM HEPES pH 7.0; 25° C., 60 minutes. As to the method:
The compounds are evaluated for biological activity with a truncated form of PTPI B (corresponding to the first 321 amino acids), which was expressed in E. coli and purified to apparent homogeneity using published procedures well-known to those skilled in the art. The enzyme reactions are carried out using standard conditions essentially as described by Burke et al. (Biochemistry 35; 15989-15996 (1996)). The assay conditions are as follows. Appropriate concentrations of the compounds of the invention are added to the reaction mixtures containing different concentrations of the substrate, p-nitrophenyl phosphate (range: 0.16 to 10 mM—final assay concentration). The buffer used was 50 mM HEPES pH 7.0, 100 mM sodium chloride, 0.1% (w/v) bovine serum albumin, 5 mM glutathione, and 1 mM EDTA. The reaction was started by addition of the enzyme and carried out in microtiter plates at 25° C. for 60 minutes. The reactions are stopped by addition of NaOH. The enzyme activity was determined by measurement of the absorbance at 405 nm with appropriate corrections for absorbance at 405 nm of the compounds and p-nitrophenyl phosphate. The data are analyzed using nonlinear regression fit to classical Michaelis Menten enzyme kinetic models. Inhibition is expressed as Ki values in nM.

The structures appear in SMILES notation.

With `O=C(O)C(=O)Nc1sc2c(c1C(=O)O)CC(CN1Cc3c(O)cccc3C1=O)NC2` (stereo not shown) [Example 8, 5-(4-Hydroxy-1-oxo-1,3-dihydro-isoindol-2-ylmethyl)-2-(oxalyl-amino)-4,5,6,7-tetrahydro-thieno[2,3-c]pyridine-3-carboxylic acid], the Ki was 250 nM.

In the case of `O=C(O)C(=O)Nc1sc2c(c1C(=O)O)CC(CNC1=NS(=O)(=O)c3ccccc31)NC2` (stereo not shown) [Example 10, 5-((1,1-Dioxo-1H-benzo[d]isothiazol-3-ylamino)methyl)-2-(oxalyl-amino)-4,5,6,7-tetrahydro-thieno[2,3-c]pyridine-3-carboxylic acid], the affinity corresponds to a Ki of 270 nM.

As for `O=C(O)C(=O)Nc1sc2c(c1C(=O)O)CCNC2CNC1=NS(=O)(=O)c2ccccc21` (stereo not shown) [Example 11, 7-((1,1-Dioxo-1H-benzo[d]isothiazol-3-ylamino)methyl)-2-(oxalyl-amino)-4,5,6,7-tetrahydro-thieno[2,3-c]pyridine-3-carboxylic acid], the affinity corresponds to a Ki of 240 nM.

In turn, `COc1cccc2c1C(=O)N(CC1Cc3c(sc(NC(=O)C(=O)O)c3C(=O)O)CN1)C2` (stereo not shown) [Example 12, 5-(7-Methoxy-1-oxo-1,3-dihydro-isoindol-2-ylmethyl)-2-(oxalyl-amino)-4,5,6,7-tetrahydro-thieno[2,3-c]pyridine-3-carboxylic acid] registered a Ki of 570 nM.

The molecule `O=C(O)C(=O)Nc1sc2c(c1C(=O)O)CC(CNC(=O)C(=O)c1c[nH]c3ccccc13)NC2` (stereo not shown) [Example 36, 5-((2-(1H-indol-3-yl)-2-oxo-acetylamino)methyl)-2-(Oxalyl-amino)-4,5,6,7-tetrahydro-thieno[2,3-c]pyridine-3-carboxylic acid] gave a Ki of 830 nM.

`CC(=O)N(Cc1ccc(Oc2ccccc2)cc1)C[C@@H]1NCCc2c1sc(NC(=O)C(=O)O)c2C(=O)O` [Example 42, 7-(S)-((Acetyl-(4-phenoxy-benzyl)amino)methyl)-2-(oxalyl-amino)-4,5,6,7-tetrahydro-thieno[2,3-c]pyridine-3-carboxylic acid] came in with a Ki of 220 nM.

Regarding `COC(=O)c1cc(OC)cc2c1CN(CC1Cc3c(sc(NC(=O)C(=O)O)c3C(=O)O)CN1)C2=O` (stereo not shown) [Example 46, 5-(6-Methoxy-4-methoxycarbonyl-1-oxo-1 ,3-dihydro-isoindol-2-ylmethyl)-2-(oxalyl-amino)-4,5,6,7-tetrahydro-thieno[2,3-c]pyridine-3-carboxylic acid], the inhibition constant Ki was 300 nM.
